pIC50: −log10 of the molar value. Several values for one entry are separate records, joined by “and”; a condition that tells them apart may be missing. Equal values may be shown once.
What was measured:
[1] = test system: neonatal rat ventricular cardiomyocytes (NVCM); assay: Protection against DAU-induced cytotoxicity (LDH release) in NVCM; type: cell-based; parameters: key to Suppl.Fig.3 DAU-induced cytotoxicity (LDH release) in NVCM, mean of independent replicates / LDH release (DAU-induced cytotoxicity), mean of independent replicates: % of total LDH activity
Protocol: (§1) The protective effects of the BNS-22 and newly prepared compounds were evaluated using primary cultures of neonatal rat cardiomyocytes isolated in house as previously described. Hearts isolated from 1- to 3-day-old Wistar rats were minced in buffer (1.2 mM MgSO4 · 7H2O, 116 mM NaCl, 5.3 mM KCl, 1.13 mM NaH2PO4 · H2O, 20 mM 4-(2-hydroxyethyl)-1-piperazine ethanesulfonic acid (HEPES), glucose 1 mg/mL) on ice, then serially digested (20 min, six repetitions) at 37 °C with collagenase type II (60 U/mL, Gibco). After 2 h pre-plating in a 150 mm Petri dish per approximately 20 hearts to minimize non-myocyte contamination, cells were plated in 24-well gelatin-coated plates at a density of 400,000 cells per well. Cells were cultured at 37 °C and 5% CO2 in Dulbecco’s modified Eagle medium (DMEM)/ F12 culture medium supplemented with 10% horse serum, 5% fetal bovine serum (FBS), 20 mM sodium pyruvate, 50 U/mL penicillin, and 50 μg/mL streptomycin. Freshly isolated cells were left for 40 h to attach and form a culture of spontaneously beating cardiomyocytes, then the medium was changed to DMEM/F12 medium supplemented with 5% fetal bovine serum, 20 mM sodium pyruvate, 50 U/mL penicillin, and 50 μg/mL streptomycin. For the experiments, the medium was changed to serum- and pyruvate-free DMEM/F12 with 50 U/mL penicillin and 50 μg/mL streptomycin. Cardiomyocytes were pretreated with BNS-22 or new compounds for 3 h and then coincubated with DAU (1.2 µM) for another 3 h. After the DAU treatment period, the culture medium was exchanged for the drug-free DMEM/F12 with 50 U/mL penicillin and 50 μg/mL streptomycin for the 48 h follow-up. Experiments to determine the inherent toxicity of each compound studied follow the same schedule, only no DAU was added. Subsequently, the culture medium sample was taken from each well for evaluation of lactate dehydrogenase (LDH) activity. The total LDH activity of each sample for normalization was measured after 1 h of incubation at 37 °C in lysis buffer (0.1 M potassium phosphate, 1% Triton X-100, 1 mM dithiothreitol (DTT), 2 mM EDTA, pH 7.8, 15 min in RT). All samples were immediately analyzed in Tris HCl buffer (pH 8.9) containing 35 mM lactic acid and 5 mM NAD^+. The rate of NAD^+ reduction was monitored spectrophotometrically at 340 nm for 2 min. The slope of the linear region was calculated, and the results were expressed as a percentage of the total LDH. Each presented data point was obtained from distinct sample.

[2] = test system: neonatal rat ventricular cardiomyocytes (NVCM); assay: Inherent toxicity (LDH release) in NVCM; type: cell-based; parameters: key to LDH release (inherent toxicity), mean of independent replicates: % of total LDH activity; conditions: NVCM, Suppl.Fig.4
Protocol: as §1

YFP-TOP2A = target: T1, YFP-TOP2A (Homo sapiens, UniProt P11388); assay: FRAP analysis, YFP-TOP2A in HEK293F cells; type: cell-based; conditions: 15 min pre-incubation
T1 construct: Using recombinant full-length human TOP2A and TOP2B enzymes; expressed in transfected cells; host or cells: HEK293F
T1 sequence (P11388 whole entry): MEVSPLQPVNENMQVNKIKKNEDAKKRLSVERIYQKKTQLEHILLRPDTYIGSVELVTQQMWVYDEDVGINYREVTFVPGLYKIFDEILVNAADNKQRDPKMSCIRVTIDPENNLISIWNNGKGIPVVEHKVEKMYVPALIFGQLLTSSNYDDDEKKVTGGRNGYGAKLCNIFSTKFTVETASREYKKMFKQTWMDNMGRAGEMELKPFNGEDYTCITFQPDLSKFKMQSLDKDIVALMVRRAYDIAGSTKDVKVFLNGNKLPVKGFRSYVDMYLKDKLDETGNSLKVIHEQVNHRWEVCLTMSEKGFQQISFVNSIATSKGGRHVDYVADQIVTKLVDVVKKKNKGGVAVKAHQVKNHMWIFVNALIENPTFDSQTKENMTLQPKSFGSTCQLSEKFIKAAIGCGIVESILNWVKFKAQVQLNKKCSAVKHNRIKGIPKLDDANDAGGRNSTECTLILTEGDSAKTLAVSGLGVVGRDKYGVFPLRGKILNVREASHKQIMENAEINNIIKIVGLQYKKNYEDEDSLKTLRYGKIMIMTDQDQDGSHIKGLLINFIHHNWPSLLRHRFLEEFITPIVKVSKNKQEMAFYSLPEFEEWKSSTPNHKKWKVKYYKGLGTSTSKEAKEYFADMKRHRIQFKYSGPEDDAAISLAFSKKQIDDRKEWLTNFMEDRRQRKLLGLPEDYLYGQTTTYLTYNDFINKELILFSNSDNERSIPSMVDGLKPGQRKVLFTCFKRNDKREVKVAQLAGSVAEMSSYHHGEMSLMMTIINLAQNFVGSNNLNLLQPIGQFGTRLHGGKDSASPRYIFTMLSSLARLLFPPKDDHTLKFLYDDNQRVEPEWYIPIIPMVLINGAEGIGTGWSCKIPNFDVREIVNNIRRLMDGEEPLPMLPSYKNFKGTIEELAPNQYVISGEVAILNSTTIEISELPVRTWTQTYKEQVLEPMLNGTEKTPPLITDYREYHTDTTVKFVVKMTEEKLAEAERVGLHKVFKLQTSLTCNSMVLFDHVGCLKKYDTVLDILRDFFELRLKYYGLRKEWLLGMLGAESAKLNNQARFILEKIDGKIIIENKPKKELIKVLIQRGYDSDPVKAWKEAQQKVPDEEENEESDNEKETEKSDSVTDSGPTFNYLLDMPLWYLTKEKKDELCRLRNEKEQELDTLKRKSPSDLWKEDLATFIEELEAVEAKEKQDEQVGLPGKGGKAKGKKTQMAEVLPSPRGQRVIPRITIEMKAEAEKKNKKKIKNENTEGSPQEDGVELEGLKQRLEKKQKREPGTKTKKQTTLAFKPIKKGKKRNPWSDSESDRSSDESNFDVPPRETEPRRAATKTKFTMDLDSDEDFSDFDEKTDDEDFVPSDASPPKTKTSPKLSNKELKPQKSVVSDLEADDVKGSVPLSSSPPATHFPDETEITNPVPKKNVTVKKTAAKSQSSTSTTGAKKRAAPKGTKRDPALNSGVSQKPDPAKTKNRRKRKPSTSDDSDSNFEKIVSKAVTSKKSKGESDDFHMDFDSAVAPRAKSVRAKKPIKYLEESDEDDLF
Protocol: (§2) HEK293F cells were transfected with DNA plasmids encoding yellow-fluorescent protein (YFP)-TOP2A or YFP-TOP2B (the same DNA constructs for mammalian protein expression and purification) using Lipofectamine 2000 (Thermo Fisher Scientific). Cells were cultured for 24 h post transfection and YFP signals were confirmed prior to FRAP experiments. Transfected cells were plated on glass-bottomed culture dishes (Matsunami) and rested overnight. The next day, each dish was pre-incubated with the indicated inhibitor treatment or DMSO control for 15 min prior to FRAP experiment. Each set of experiments was repeated on at least two different days using newly transfected cells each time. Live-cell imaging was done using a LSM 980 microscope (Carl Zeiss Microscopy, LLC). YFP signal was excited at 508 nm at 2% laser power and detected through a 516–604 nm range. A small area within the nucleus (purple box) is manually selected for fluorescence bleaching at 100% laser power for 50 iterations. Inhibition of TOP2 by obex inhibitors was detected by impairment in fluorescence recovery at 15 s post bleaching, as a lack of inhibition allows for TOP2 diffusion throughout the nucleus.

YFP-TOP2B = target: T2, YFP-TOP2B (Homo sapiens, UniProt Q02880); assay: FRAP analysis, YFP-TOP2B in HEK293F cells; type: cell-based; conditions: 15 min pre-incubation
T2 construct: Using recombinant full-length human TOP2A and TOP2B enzymes; expressed in transfected cells; host or cells: HEK293F
T2 sequence (Q02880 1-1621 isoform Q02880-2): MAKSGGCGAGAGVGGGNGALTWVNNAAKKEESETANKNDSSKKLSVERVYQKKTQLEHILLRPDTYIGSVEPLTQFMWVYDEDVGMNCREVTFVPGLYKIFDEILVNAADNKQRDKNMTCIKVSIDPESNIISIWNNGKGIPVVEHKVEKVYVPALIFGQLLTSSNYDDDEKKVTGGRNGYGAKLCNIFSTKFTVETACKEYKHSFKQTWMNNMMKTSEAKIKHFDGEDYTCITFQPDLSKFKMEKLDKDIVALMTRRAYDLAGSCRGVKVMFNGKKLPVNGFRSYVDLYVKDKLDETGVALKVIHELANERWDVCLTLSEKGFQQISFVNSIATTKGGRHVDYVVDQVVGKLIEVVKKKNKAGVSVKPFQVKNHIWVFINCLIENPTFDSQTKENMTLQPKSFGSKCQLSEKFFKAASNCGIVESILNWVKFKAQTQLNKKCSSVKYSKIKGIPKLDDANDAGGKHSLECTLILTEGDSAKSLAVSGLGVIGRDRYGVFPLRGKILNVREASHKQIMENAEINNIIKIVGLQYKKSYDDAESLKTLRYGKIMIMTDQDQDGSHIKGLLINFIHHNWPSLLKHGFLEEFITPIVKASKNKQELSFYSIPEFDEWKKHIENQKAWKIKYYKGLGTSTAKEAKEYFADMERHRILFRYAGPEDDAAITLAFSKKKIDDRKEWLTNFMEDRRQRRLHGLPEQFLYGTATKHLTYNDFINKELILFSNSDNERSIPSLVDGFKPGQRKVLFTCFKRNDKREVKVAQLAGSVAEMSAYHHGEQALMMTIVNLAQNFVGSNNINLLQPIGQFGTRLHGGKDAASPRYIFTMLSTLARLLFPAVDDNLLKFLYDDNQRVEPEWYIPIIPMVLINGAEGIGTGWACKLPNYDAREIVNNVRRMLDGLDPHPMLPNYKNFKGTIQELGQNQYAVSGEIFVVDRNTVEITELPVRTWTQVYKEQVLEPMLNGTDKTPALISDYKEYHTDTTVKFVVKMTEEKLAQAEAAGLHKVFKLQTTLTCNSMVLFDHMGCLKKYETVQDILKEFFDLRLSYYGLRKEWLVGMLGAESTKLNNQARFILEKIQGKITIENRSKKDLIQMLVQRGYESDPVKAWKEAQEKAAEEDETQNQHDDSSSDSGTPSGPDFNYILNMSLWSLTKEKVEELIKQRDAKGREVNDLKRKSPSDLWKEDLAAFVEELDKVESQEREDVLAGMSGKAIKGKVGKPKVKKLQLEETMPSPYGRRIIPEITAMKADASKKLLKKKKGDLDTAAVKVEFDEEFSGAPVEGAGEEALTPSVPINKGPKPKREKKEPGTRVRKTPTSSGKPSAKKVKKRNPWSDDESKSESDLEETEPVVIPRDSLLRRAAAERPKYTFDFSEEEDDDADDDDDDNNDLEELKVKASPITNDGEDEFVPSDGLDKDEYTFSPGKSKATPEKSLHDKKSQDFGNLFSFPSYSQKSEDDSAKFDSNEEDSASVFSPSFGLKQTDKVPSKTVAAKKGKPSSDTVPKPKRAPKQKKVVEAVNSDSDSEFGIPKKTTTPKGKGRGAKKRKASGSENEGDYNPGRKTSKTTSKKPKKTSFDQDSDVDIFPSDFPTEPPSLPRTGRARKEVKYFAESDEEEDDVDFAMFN
Protocol: as §2

recombinant human TOP2A = target: T3, recombinant human TOP2A (Homo sapiens, UniProt P11388); assay: In vitro ATPase activity of TOP2A (coupled assay); type: biochemical; conditions: n=3
T3 construct: Using recombinant full-length human TOP2A and TOP2B enzymes; YFP (N, cleaved yes); made in house; host or cells: HEK293F
T3 sequence (P11388 whole entry): as the sequence (P11388 whole entry) above
Protocol: (§3) Topoisomerase proteins were diluted to 500 nM in storage buffer containing 20 mM HEPES pH 7.5, 500 mM NaCl, 0.5 mM TCEP, 25% glycerol, and 0.2 mg/mL BSA prior to use. A coupled assay was used to measure TOP2-catalyzed ATP hydrolysis in vitro[37] in Costar 96-well plates (Corning Incorporated). […] Reaction plates were pre-warmed to 30 °C for 5 min and ATP was added last to initiate the reaction. The reaction plate was placed in a CLARIOstarPlus plate reader (BMG Labtech) to measure NADH fluorescence at 30 °C every 30 s over 120 cycles using a 340-60 excitation filter and a 480-100 emission filter. Background fluorescence signals calculated from wells containing no ATP were subtracted from each measurement. The slope of NADH fluorescence decay in each well was calculated using the MARS software (BMG Labtech) and reaction wells that lacked topoisomerase inhibitor to account for photobleaching of NADH fluorescence served as background subtraction. Each presented data point was obtained from distinct sample. Values were normalized to untreated controls and plotted as a function of inhibitor concentration to determine IC50 values using Prism 9 (GraphPad).

recombinant human TOP2B = target: T4, recombinant human TOP2B (Homo sapiens, UniProt Q02880); assay: In vitro ATPase activity of TOP2B (coupled assay); type: biochemical
T4 construct: Using recombinant full-length human TOP2A and TOP2B enzymes; YFP (N, cleaved yes); made in house; host or cells: HEK293F
T4 sequence (Q02880 1-1621 isoform Q02880-2): as the sequence (Q02880 1-1621 isoform Q02880-2) above
Protocol: as §3

[3] = target: T5, TOP2A-DNA covalent complex (Homo sapiens, UniProt P11388); assay: RADAR assay, etoposide-induced TOP2A-DNA covalent complex in HEK293F cells; type: cell-based; conditions: etoposide 5 μM alone; independent replicates
T5 construct: endogenous in cells; host or cells: HEK293F
T5 sequence (P11388 whole entry, one chain of several): as the sequence (P11388 whole entry) above
Protocol: (§4) HEK293F cells were plated at 3 × 10^5 cells per well and grown overnight. […] Upon removal of media, cells in each well were immediately lysed with 750 µL DNAzol (Molecular Research Center, Inc.) and the DNA was precipitated by addition of 375 µL of 100% ethanol. This step was then repeated to eliminate protein aggregates. Precipitate from each sample was pelleted via centrifugation at 4 °C and max speed for 5 min. The pellets were washed twice with buffer containing 20 mM Tris pH 7.5, 1 mM EDTA pH 8.0, 50 mM NaCl, 50% EtOH, and at the end of each wash, centrifugation at 4000 × g for 2 min was repeated to isolate the DNA pellets. The pellets were washed in 75% EtOH and then collected by centrifugation at 4 °C and max speed for 5 min. The supernatant was removed via pipetting, and the remaining pellets were air dried for 5 min before 50 µL 8 mM NaOH and 0.1% Tween-20 was added to each pellet. Once no visible precipitate remained, each mixture was supplemented with 5 µL of Benzonase buffer containing 500 mM Tris pH 8.0, 10 mM MgCl2, 1/1000 Roche complete protease inhibitor cocktail (Millipore Sigma) and 40 units Benzonase (Millipore Sigma) followed by 30 to 60 min incubation at 37 °C until the pellets were fully dissolved. The DNA content from each sample was quantified on a nanodrop, and 10 µg of DNA was diluted to a final volume of 200 µL in 8 mM NaOH and 0.1% Tween. The samples were applied over the Whatman Minifold I dot blot apparatus (Cytiva) and collected on a PVDF membrane (Thermo Fisher Scientific). The membrane was washed three times with 8 mM NaOH and 0.1% Tween-20 solution prior to removal and blocking with the same wash solution containing 1 mg/mL BSA. Western blotting was carried out on an iBind (Thermo Fisher Scientific) and TOP2 proteins were detected using isoform-specific antibody against full length TOP2A (1:250 dilution; HT2A21, Inspiralis) and TOP2B (1:500 dilution; 611493, BD Biosciences) and visualized with anti-rabbit (1:1000 dilution; 926-68071, LI-COR Bio) and anti-mouse (1:1000 dilution; 926-32210, LI-COR Bio) secondary antibodies in iBind running buffer. The blots were imaged on a LI-COR Odyssey Fc and analysed using ImageStudio. Each presented data point was obtained from distinct sample.

[4] = target: T6, TOP2B-DNA covalent complex (Homo sapiens, UniProt Q02880); assay: RADAR assay, etoposide-induced TOP2B-DNA covalent complex in HEK293F cells; type: cell-based; conditions: etoposide 5 μM alone; independent replicates
T6 construct: endogenous in cells; host or cells: HEK293F
T6 sequence (Q02880 2-1626 limits assumed, one chain of several): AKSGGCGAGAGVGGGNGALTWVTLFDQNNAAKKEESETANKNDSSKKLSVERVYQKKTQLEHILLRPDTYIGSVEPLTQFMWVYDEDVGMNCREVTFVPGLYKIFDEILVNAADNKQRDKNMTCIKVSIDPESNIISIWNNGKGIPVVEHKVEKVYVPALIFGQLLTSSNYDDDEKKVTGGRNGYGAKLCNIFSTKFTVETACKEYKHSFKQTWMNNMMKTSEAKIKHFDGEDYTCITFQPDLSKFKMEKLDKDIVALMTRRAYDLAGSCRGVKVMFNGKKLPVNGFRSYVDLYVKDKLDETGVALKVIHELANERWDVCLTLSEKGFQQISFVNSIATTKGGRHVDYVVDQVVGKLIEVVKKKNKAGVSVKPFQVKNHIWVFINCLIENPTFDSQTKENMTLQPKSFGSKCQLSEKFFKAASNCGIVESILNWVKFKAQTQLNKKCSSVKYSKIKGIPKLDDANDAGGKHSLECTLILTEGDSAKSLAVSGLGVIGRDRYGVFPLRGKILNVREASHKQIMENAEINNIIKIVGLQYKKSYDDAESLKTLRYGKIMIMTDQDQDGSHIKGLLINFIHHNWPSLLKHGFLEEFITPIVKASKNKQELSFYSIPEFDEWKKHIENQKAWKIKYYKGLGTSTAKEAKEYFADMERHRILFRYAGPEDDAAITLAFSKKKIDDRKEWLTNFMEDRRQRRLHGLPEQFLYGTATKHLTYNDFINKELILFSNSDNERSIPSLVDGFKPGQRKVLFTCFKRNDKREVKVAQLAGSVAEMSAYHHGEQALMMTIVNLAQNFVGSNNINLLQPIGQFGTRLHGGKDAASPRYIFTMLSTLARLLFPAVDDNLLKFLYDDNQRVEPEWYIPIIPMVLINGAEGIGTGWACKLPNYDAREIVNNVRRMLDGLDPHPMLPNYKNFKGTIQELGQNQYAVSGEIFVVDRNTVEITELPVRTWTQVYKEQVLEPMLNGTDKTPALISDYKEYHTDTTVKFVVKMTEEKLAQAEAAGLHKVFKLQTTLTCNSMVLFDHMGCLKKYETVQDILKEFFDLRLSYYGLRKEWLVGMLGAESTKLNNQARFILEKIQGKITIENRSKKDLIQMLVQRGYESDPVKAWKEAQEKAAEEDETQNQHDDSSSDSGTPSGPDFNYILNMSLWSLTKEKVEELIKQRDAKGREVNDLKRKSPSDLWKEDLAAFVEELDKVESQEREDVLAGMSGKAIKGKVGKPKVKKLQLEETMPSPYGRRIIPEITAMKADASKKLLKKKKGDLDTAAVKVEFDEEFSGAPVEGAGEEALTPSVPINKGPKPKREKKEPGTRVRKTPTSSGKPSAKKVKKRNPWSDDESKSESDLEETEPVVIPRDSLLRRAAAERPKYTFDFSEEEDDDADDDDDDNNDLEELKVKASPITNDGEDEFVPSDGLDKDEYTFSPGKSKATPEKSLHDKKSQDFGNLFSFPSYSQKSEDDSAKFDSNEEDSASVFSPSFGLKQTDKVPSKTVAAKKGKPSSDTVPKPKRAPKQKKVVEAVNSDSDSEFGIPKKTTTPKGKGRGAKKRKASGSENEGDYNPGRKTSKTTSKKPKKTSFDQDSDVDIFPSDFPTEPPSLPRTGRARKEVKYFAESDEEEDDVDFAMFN
Protocol: as §4

SMILES	minimal effective concentration ([1]; Rattus norvegicus, Cardiomyocyte, NVCM, protection against DAU 1.2 µM, n=4, read-out: LEC = lowest effective concentration) [µM]	Suppl.Fig.3 DAU-induced cytotoxicity (LDH release) in NVCM, mean of independent replicates ([1]; compound 1 µM + DAU 1.2 µM)	Suppl.Fig.3 DAU-induced cytotoxicity (LDH release) in NVCM, mean of independent replicates ([1]; compound 10 µM + DAU 1.2 µM)	Suppl.Fig.3 DAU-induced cytotoxicity (LDH release) in NVCM, mean of independent replicates ([1]; compound 30 µM + DAU 1.2 µM)	Suppl.Fig.3 DAU-induced cytotoxicity (LDH release) in NVCM, mean of independent replicates ([1]; compound 100 µM + DAU 1.2 µM)	LDH release (inherent toxicity), mean of independent replicates ([2]; compound alone 1 µM)	LDH release (inherent toxicity), mean of independent replicates ([2]; compound alone 10 µM)	LDH release (inherent toxicity), mean of independent replicates ([2]; compound alone 30 µM)	LDH release (inherent toxicity), mean of independent replicates ([2]; compound alone 100 µM)	fluorescence recovery of YFP-TOP2A (FRAP) (YFP-TOP2A)	fluorescence recovery of YFP-TOP2B (FRAP) (YFP-TOP2B)	pIC50 (recombinant human TOP2A)	relative inhibition of TOP2A vs TOP2B (recombinant human TOP2B; ATPase)	SRbeta (SRTOP2B), TOP2 ATPase activity (recombinant human TOP2B; TOP2A IC50 divided by TOP2B IC50)	pIC50 (recombinant human TOP2B; n=3)	TOP2A spot intensity [3]	TOP2B spot intensity [4]
CCCc1cc(=O)oc2c(C(=O)N3CCCc4ccccc43)c(O)ccc12 [2c]	10	33.3224	29.0836	25.5275	35.3978	16.6801	16.3877	17.2005	29.603	inhibits fluorescence recovery	inhibits fluorescence recovery	6.16	inhibited TOP2A and TOP2B with equal efficacy	1.0	6.18	–	–
COc1cc([C@@H]2c3cc4c(cc3[C@@H](O[C@@H]3O[C@@H]5CO[C@@H](C)O[C@H]5[C@H](O)[C@H]3O)[C@H]3COC(=O)[C@H]23)OCO4)cc(OC)c1O [etoposide, reference compound]	–	–	–	–	–	–	–	–	–	–	–	–	–	–	–	63.37 and 136 and 84.27 and 127.1 and 89.2	173.9 and 77.69 and 59.37 and 61.46
